Read-outs that look alike come from different tables or passages of the source.
Tests used:
T. b. rhodesiense IL1501 = experiment: Antiprotozoal effect, MIC measurement in HMI-9 culture; type: cell-based; details: for MIC: Trypanosoma brucei, RHODESIENSE, 24 h, bloodstream forms, 18 + 6 hours culture
Description: T. b. rhodesiense IL1501, the human infectious protozoan that causes acute symptoms, was used as a Trypanosomatid protozoan. The bloodstream forms of protozoan can be cultured in a HMI-9 culture medium (Hirumi, 1989). The protozoan was always cultured at a temperature of 37° C. in the presence of 5% CO2.
In a microtiter plate (96-well, FALCON 3072), HMI-9 culture medium and HMI-9 culture medium plus glycerol added to make a final concentration of 8.33 mM are separately prepared. 89 μL of the preparation are put into only the first well, and a 60 μL aliquot of each the other wells. 1 μL of a solution of AF or a AF derivative dissolved in DMSO was added to the first well, and was then suspended. A 30 μL aliquot of the suspension was then collected, was transferred to the second well, and was suspended. These operations were repeated in this order to prepare a three-fold dilution series of drug. A 40 μL aliquot of a protozoan culture was added to each well to make a final concentration of 5×10^4 cells/well (a final concentration of glycerol of 5 mM) followed by 18-hours culturing under conditions of 37° C. and 5% CO2. (For EC50 measurement, a 10 μL aliquot of Alamar Blue was added to each well), culturing was carried out under the same conditions for 6 more hours, surviving protozoans were visually observed with a microscope. The concentration at which no motile surviving protozoan was observed was defined as MIC.

[1] = target: T1, recombinant Trypanosome AOX (TAO) enzyme (Trypanosoma brucei brucei, UniProt Q26710); experiment: TAO enzyme inhibition (quinol oxidase activity, ubiquinol-1 substrate); type: biochemical, T. brucei brucei; details: TAO-expressing E. coli membrane fraction, 25° C., ubiquinol-1, absorbance at 278 nm
T1 construct: made in house; host or cells: Escherichia coli (membrane fraction)
Description: Escherichia coli membrane fractions that express TAO by a plasmid harboring TAO cDNA cloned from T. brucei brucei (Fukai, Comparative Biochemistry & Physiology, 124, 141-148, 1999) were used as a recombinant Trypanosome AOX (TAO) enzyme. 50 mM Tris-HCl (pH 7.5), TAO-expressing membrane fraction (0.35 ng), and […] of an inhibitor were mixed in a 1 mL cuvette, and the mixture was incubated at 25° C. for 4 minutes. Ubiquinol-1 as a substrate was then added to the mixture to initiated the reaction, and change in absorbance at 278 nm was monitored (Shimadzu UV-3000, molar absorption coefficient ε=15 cm^−1 mM^−1).

[2] = target: Cryptosporidium cyanide insensitive oxidase (AOX), recombinant protein (cCpAOX) (Cryptosporidium parvum, UniProt Q761U6); experiment: CpAOX enzyme inhibition; type: biochemical
Source text: Cryptosporidium has found to have cyanide insensitive oxidase (AOX), and its inhibitory activity was observed using its recombinant protein (cCpAOX) produced in E. coli.

[3] = Glycerol (+), final concentration of glycerol of 5 mM

T1 sequence (Q26710 whole entry): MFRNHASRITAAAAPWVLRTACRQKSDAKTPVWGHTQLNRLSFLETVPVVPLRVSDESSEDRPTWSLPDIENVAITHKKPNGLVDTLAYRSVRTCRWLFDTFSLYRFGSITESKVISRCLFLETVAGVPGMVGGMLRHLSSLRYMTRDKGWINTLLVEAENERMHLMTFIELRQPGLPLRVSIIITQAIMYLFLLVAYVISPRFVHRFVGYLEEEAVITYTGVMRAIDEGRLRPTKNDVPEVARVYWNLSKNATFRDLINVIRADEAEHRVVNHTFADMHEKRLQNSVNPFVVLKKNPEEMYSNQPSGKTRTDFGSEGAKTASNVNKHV
Chain of Cryptosporidium cyanide insensitive oxidase (AOX), recombinant protein (cCpAOX) (Q761U6 entry or part of it): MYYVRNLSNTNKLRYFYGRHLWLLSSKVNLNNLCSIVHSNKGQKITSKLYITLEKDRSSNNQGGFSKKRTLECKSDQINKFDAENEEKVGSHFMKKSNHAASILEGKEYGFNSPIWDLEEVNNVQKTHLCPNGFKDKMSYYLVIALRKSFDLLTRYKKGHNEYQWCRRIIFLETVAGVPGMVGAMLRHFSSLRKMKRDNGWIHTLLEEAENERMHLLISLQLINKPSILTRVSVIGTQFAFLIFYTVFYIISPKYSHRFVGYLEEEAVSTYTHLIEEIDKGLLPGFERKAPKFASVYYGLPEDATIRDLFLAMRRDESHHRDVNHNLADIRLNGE

| SMILES | melting point | IC50 [1] | other results |
| --- | --- | --- | --- |
| CCCCCC(C)=CCc1c(O)c(Cl)c(C)c(C(C)=O)c1O (mixture of isomers) [Compound 268-8, (E/Z)-3-Chloro-4,6-dihydroxy-2-methyl-5-(3-methyl-2-octenyl)acetophenone] | 42 to 46 °C | 0.55 nM | MIC (T. b. rhodesiense IL1501; [3]): 0.28 nM; MIC (T. b. rhodesiense IL1501; Glycerol (−)): 14.7 nM |
| COC(=O)c1c(C)cc(O)c(C/C=C(\C)CCC=C(C)C)c1O [Compound 146, Methyl (E)-3-(3,7-Dimethyl-2,6-octadienyl)-2,4-dihydroxy-6-methylbenzoate] | 46 to 47 °C | – | – |
| COC(=O)c1ccc(O)c(C/C=C(\C)CCC=C(C)C)c1O [Compound 161, Methyl (E)-3-(3,7-Dimethyl-2,6-octadienyl)-2,4-dihydroxybenzoate] | 62 °C | – | – |
| CC(=O)c1c(C)c(Cl)c(O)c(C/C=C(\C)CCC=C(C)C)c1O [Compound 173, (E)-3-Chloro-4,6-dihydroxy-5-(3,7-dimethyl-2,6-octadienyl)-2-methylacetophenone] | 57 to 58 °C | 0.15 nM | Antiprotozoal Effect (MIC) Glycerol (+) (T. b. rhodesiense IL1501; Glycerol (+), final concentration of glycerol of 5 mM, cell prints its own unit fM): 0.0008 nM; MIC (T. b. rhodesiense IL1501; Glycerol (−)): 1.4 nM |
| CC(=O)c1cc(Cl)c(O)c(CCCCCCCOC(=O)C(C)(C)C)c1O [Compound 178-11-OPiv, 7-(3-Acetyl-5-chloro-2,6-dihydroxyphenyl)heptyl pivalate] | 48 °C | – | – |
| Cc1c(Cl)c(O)c(CCCCCCCOC(=O)C(C)(C)C)c(O)c1C#N [Compound 193-11-OPiv, 7-(3-Chloro-5-cyano-2,6-dihydroxy-4-methylphenyl)heptyl pivalate] | 67 to 68 °C | 6 nM | – |
| Cc1c(Cl)c(O)c(/C=C/CCCCCCOC(=O)C(C)(C)C)c(O)c1C=O [Compound 200-12-OPiv, (E)-8-(3-Chloro-5-formyl-2,6-dihydroxy-4-methylphenyl)-7-octenyl pivalate] | 57 to 58 °C | 0.7 nM | – |
| CCC(=O)OCCCCCCC/C=C/c1c(O)c(Cl)c(C)c(C=O)c1O [Compound 200-13-OCOEt, (E)-9-(3-Chloro-5-formyl-2,6-dihydroxy-4-methylphenyl)-8-nonenyl propionate] | 72 to 73 °C | 0.3 nM | – |
| C/C(=C\Cc1c(O)c(Cl)cc(C=O)c1O)CC/C=C(\C)C1CC(=O)C(C)(C)O1 (centres unmarked) [Compound 209, 5-Chloro-2,4-dihydroxy-3-[(2E,6E)-7-(5,5-dimethyl-4-oxotetrahydrohuran-2-yl)-3,7-dimethyl-2,6-heptadienyl]benzaldehyde] | 70 to 72 °C | 0.2 nM | – |
| Cc1c(Cl)c(O)c(CCCCCCCC(=O)O)c(O)c1C=O [Compound 215-9-COOH, 8-(3-Chloro-5-formyl-2,6-dihydroxy-4-methylphenyl)octanoic acid] | 149 to 150 °C | – | – |
| Cc1c(Cl)c(O)c(CCCCCCCCOC(=O)C(C)C)c(O)c1C=O [Compound 215-12-OCOiPr, 8-(3-Chloro-5-formyl-2,6-dihydroxy-4-methylphenyl)octyl isobutylate] | – | 0.29 nM | IC50 ([2]; recombinant protein produced in E. coli, read-out: CpAOX enzyme inhibition (IC50:nM)): 3.7 nM |
| Cc1c(Cl)c(O)c(CCCCCCCCCCCC(=O)O)c(O)c1C=O [Compound 215-13-COOH, 12-(3-Chloro-5-formyl-2,6-dihydroxy-4-methylphenyl)dodecanoic acid] | 130 to 131 °C | 4.2 nM | – |
| Cc1c(Cl)c(O)c(CCCCCCCCCOC(=O)C(C)(C)C)c(O)c1C=O [Compound 215-13-OPiv, 9-(3-Chloro-5-formyl-2,6-dihydroxy-4-methylphenyl)nonyl pivalate] | 62 °C | 0.22 nM | MIC (T. b. rhodesiense IL1501; [3]): 0.0081 nM; MIC (T. b. rhodesiense IL1501; Glycerol (−)): 280 nM |
| CC(C)=CCC/C(C)=C/Cc1c(O)cc(C)c(C=O)c1O [Compound 216, (E)-2,4-Dihydroxy-3-(3,7-dimethyl-2,6-octadienyl)-6-methylbenzaldehyde] | 120 to 121 °C | – | – |
| CC(C)=CCC/C(C)=C/Cc1c(O)ccc(C=O)c1O [Compound 217, (E)-2,4-Dihydroxy-3-(3,7-dimethyl-2,6-octadienyl)benzaldehyde] | 85 °C | – | – |
| CC(C)=CCC/C(C)=C/Cc1c(O)c(Cl)cc(C=O)c1O [Compound 224, (E)-5-Chloro-2,4-dihydroxy-3-(3,7-dimethyl-2,6-octadienyl)benzaldehyde] | 94 to 95 °C | – | – |
| Cc1c(Cl)c(O)c(CCC(C)CCCC(C)COC(=O)C(C)(C)C)c(O)c1C=O (centres unmarked) [Compound 235-12-OPiv, 8-(3-Chloro-5-formyl-2,6-dihydroxy-4-methylphenyl)-2,6-dimethyloctyl pivalate] | – | – | IC50 [2]: 2.3 nM |
| C/C(=C\CC/C(C)=C/Cc1c(O)c(Cl)c(C)c(C=O)c1O)CO [Compound 236-9-OH, 3-Chloro-4,6-dihydroxy-5-[(2E,6E)-8-hydroxy-3,7-dimethyl-2,6-octadienyl]-2-methylbenzaldehyde] | 99 to 99.7 °C | 0.3 nM | – |
| COCOC/C(C)=C/CC/C(C)=C/Cc1c(O)c(Cl)c(C)c(C=O)c1O [Compound 236-12-OMOM, 3-Chloro-5-[(2E,6E)-3,7-dimethyl-8-(methoxymethoxy)-2,6-octadienyl]-4,6-dihydroxy-2-methylbenzaldehyde] | 49 to 50 °C | 0.12 nM | – |
| C/C(=C\Cc1c(O)c(Cl)c(C)c(C=O)c1O)CC/C=C(\C)COC1CCCO1 (centres unmarked) [Compound 236-12-OTHF, 3-Chloro-5-[(2E,6E)-3,7-dimethyl-8-(tetrahydrofuran-2-yloxy)-2,6-octadienyl]-4,6-dihydroxy-2-methylbenzaldehyde] | 35 to 36 °C | 0.12 nM | – |
| Cc1c(Cl)c(O)c(CCCCCCCC2CC(=O)C(C)(C)O2)c(O)c1C=O (centres unmarked) [Compound 250, 5-Chloro-2,4-dihydroxy-6-methyl-3-[7-(3,3-dimethyl-4-oxo-2-oxacyclopentyl)heptyl]benzaldehyde] | 70 to 71 °C | 0.5 nM | MIC (T. b. rhodesiense IL1501; [3]): 0.78 nM; MIC (T. b. rhodesiense IL1501; Glycerol (−)): 12 nM |
| CCCCCC(C)CCc1c(O)c(Cl)c(C)c(C=O)c1O (centres unmarked) [Compound 265-8, 3-Chloro-4,6-dihydroxy-2-methyl-5-(3-methyloctyl)benzaldehyde] | 65 to 67 °C | 0.18 nM | MIC (T. b. rhodesiense IL1501; [3]): 0.011 nM; MIC (T. b. rhodesiense IL1501; Glycerol (−)): 0.46 nM |
| C/C(C=O)=C\CC/C(C)=C/Cc1c(O)c(Cl)c(C)c(C=O)c1O [Compound 274-9, 3-Chloro-5-[(2E,6E)-3,7-dimethyl-8-oxo-2,6-octadienyl]-4,6-dihydroxy-2-methylbenzaldehyde] | 111.2 to 111.4 °C | 0.3 nM | – |
| C/C(=C\Cc1c(O)c(Cl)c(C)c(C=O)c1O)CC/C=C(\C)CCC1OC1(C)C (centres unmarked) [Compound 281-12, 3-Chloro-5-[(2E,6E)-3,7-dimethyl-9-(3,3-dimethyloxiran-2-yl)-2,6-nonadienyl]-4,6-dihydroxy-2-methylbenzaldehyde] | 36 to 37 °C | 0.21 nM | – |
| CC(=O)c1c(C)c(Cl)c(O)c(C/C=C(\C)CC/C=C(\C)CCC=C(C)C)c1O [Compound 282-12, (E,E)-3-Chloro-4,6-dihydroxy 5-(3,7,11-trimethyl-2,6,10-dodecathenyl)-2-methylacetophenone] | 92 to 93 °C | 0.15 nM | MIC (T. b. rhodesiense IL1501; [3]): 11 nM; MIC (T. b. rhodesiense IL1501; Glycerol (−)): 19 nM |
| CC(C)=CCCC#CCc1c(O)c(Cl)c(C)c(C=O)c1O [Compound 285-8, 3-Chloro-4,6-dihydroxy-2-methyl-5-(7-methyl-6-octen-2-ynyl)benzaldehyde] | 138 °C | 0.3 nM | – |
| Cc1c(Cl)c(O)c(CCCCCCCCCC(=O)OCC2COC(=O)O2)c(O)c1C=O (centres unmarked) [Compound 501-16-G, 1,3 Dioxolane-2-oxo-4-methyl 10-(3-chloro-5-formyl-2,6-dihydroxy-4-methylphenyl)decanoate] | 70 to 72 °C | 0.32 nM | MIC (T. b. rhodesiense IL1501; [3]): 1800 nM; MIC (T. b. rhodesiense IL1501; Glycerol (−)): 14000 nM |
| C/C(=C\Cc1c(O)c(Cl)c(C)c(C=O)c1O)CC/C=C(\C)C1OC(C)C(C)O1 (centres unmarked) [Compound 509-11, 3-Chloro-5-((2E,6E)-7-(4,5-dimethyl-1,3-dioxolane-2-yl)-3-methyl-2,6-octadienyl)-4,6-dihydroxy-2-methylbenzaldehyde] | 35 to 36 °C | 0.3 nM | – |

From patent publication US9440913B2, “Dihydroxybenzene derivatives and antiprotozoal agent comprising same as active ingredient” (NAI INC., priority 2010, dated 2016)
